# Reference: patent publication US10835564B2, “Composition for preventing and treating premature ovarian failure, containing Evodia rutaecarpa bentham extract having protective activity against ovotoxicity” (DONGGUK UNIVERSITY GYEONGJU CAMPUS INDUSTRY-ACADEMY …, priority 2015, dated 2020)
# System: CHO-K1 cells
# Assay: MTT assay, cytotoxicity against CHO-K1 cells
# Assay type: cell-based, hamster
# Settings: 24 hours, FIG. 4, read-out: concentration at which the viability of CHO-K1 cells became about 50%
# Procedure: The cell viability was analyzed by a 3-(4,5-dimethylthiazol)-2,5-diphenyltetrazolium bromide (MTT) assay method. After CHO-K1 cells at 2×10^4 cells/well were cultured in a 48-well plate and then serum starved for 4 hours, VCD was treated at various concentrations or the respective medicines were pre-treated at 100 μg/ml, VCD (1.5 mM) was sequentially treated, and the cells were cultured under the conditions of 37° C. and 5% CO2 for 24 hours. After 30 μl of an MTT solution (2 mg/ml) per well was added thereto and the resulting mixture was allowed to react in an incubator at 37° C. and 5% CO2 for 3 hours, the MTT solution and the culture solution were completely removed, and then formazan crystallites formed in the cells were dissolved by using 150 μl of dimethyl sulfoxide (DMSO, Sigma-Aldrich, USA), and the absorbance thereof was measured at 595 nm by using an ELISA plate reader (DYNEX, Opsys MR, USA). The cell viability for the control was expressed as a percentage.
# The cytotoxicity of VCD against CHO-K1 cells was evaluated by the MTT assay according to Example 1-4, and as a result, the concentration (1.5 mM) at which the viability of CHO-K1 cells by VCD became about 50% was determined (see FIG. 4), and the result was applied to the following experiment. […]
smiles,measurement,value
"C1CC2OC2CC1C1CO1 (stereo not shown) [VCD, 4-vinylcyclohexene diepoxide]",IC50,1500 µM
